These results are taken from patent US12091423B2, “Substituted 3,4,12,12a-tetrahydro-1H-[1,4]oxazino[3,4-c]pyrido[2,1-f][1,2,4]triazine-6,8-dione, pharmaceutical composition, method for the production and use thereof” (VIRIOM, INC., priority 2019, dated 2024).

The test system of this assay is influenza A/California/2009 (H1N1). Kind of assay: microbe, parasite or virus in culture. In kind it is cell-based. The settings on record: H1N1, MDCK.

The EC50 is the concentration needed to bring the measured effect to its halfway point. A higher EC50 goes with lower potency in that assay. On to `O=C1c2c(O)c(=O)ccn2N([C@@H]2c3ccc(F)c(F)c3CSc3ccsc32)[C@@H]2COCCN12` [1.3.2, (12aR)-7-hydroxy-12-[(10R)-6,7-difluoro-5,10-dihydrothieno[3,2-c][2]benzothiepin-10-yl]-3,4,12,12a-tetrahydro-1H-[1,4]oxazino[3,4-c]pyrido[2,1-f][1,2,4]triazine-6,8-dione], for which the EC50 was under 0.3 nM.
As for `O=C1c2c(O)c(=O)ccn2N([C@H](c2ccccc2)c2ccc(F)c(F)c2)[C@@H]2COCCN12` [1.8.2, (12aR)-7-hydroxy-12-[(R)-(3,4-difluorophenyl)(phenyl)methyl]-3,4,12,12a-tetrahydro-1H-[1,4]oxazino[3,4-c]pyrido[2,1-f][1,2,4]triazine-6,8-dione], the EC50 lay in the range of 2 to 4 nM.
The result for `O=C1c2c(O)c(=O)ccn2N([C@@H](c2ccccc2)c2ccc(F)c(F)c2)[C@@H]2COCCN12` [1.9.2, (12aR)-7-hydroxy-12-[(S)-(3,4-difluorophenyl)(phenyl)methyl]-3,4,12,12a-tetrahydro-1H-[1,4]oxazino[3,4-c]pyrido[2,1-f][1,2,4]triazine-6,8-dione] reads 2 to 4 nM; that for `O=C1c2c(O)c(=O)ccn2N(C(c2ccccc2)c2ccccc2)[C@@H]2COCCN12` [1.13.2, (12aR)-7-hydroxy-12-diphenylmethyl-3,4,12,12a-tetrahydro-1H-[1,4]oxazino[3,4-c]pyrido[2,1-f][1,2,4]triazine-6,8-dione], 2 to 4 nM.
Turning to `O=C1c2c(O)c(=O)ccn2N(C(c2ccc(F)cc2)c2ccc(F)cc2)[C@@H]2COCCN12` [1.14.2, (12aR)-7-hydroxy-12-[bis(4-fluorophenyl)methyl]-3,4,12,12a-tetrahydro-1H-[1,4]oxazino[3,4-c]pyrido[2,1-f][1,2,4]triazine-6,8-dione], the EC50 lay in the range of 2 to 4 nM.
